Measurements reported in patent US10961176B2, “Compound hexadecaphlorethol isolated from Ishige okamurae and use thereof” (Jeju National University Industry-Academic Cooperation …, priority 2018, dated 2021).

Experiments:
yeast α-glucosidase = test: Inhibitory activity against α-glucosidase; format: biochemical; details: yeast enzyme, PNP-G substrate, pH 7.0, 37° C.; read-out: IC50 (concentration necessary for inhibiting the activity of α-glucosidase by 50%)
Procedure: Inhibitory activity against α-glucosidase was evaluated using a yeast enzyme according to the method of Watanabe et al. (Watanabe, Kawabata, Kurihara, & Niki, 1997). In the reaction condition of pH 7.0 and 37° C., 5 mM p-nitrophenyl α-D-glucopyranoside (PNP-G) serving as a substrate was reacted with a dilution of 32 mU/ml enzyme (yeast α-glucosidase, Sigma) in 100 mM phosphate buffer and inhibitory activity was measured using spectrophotometry. The sample was reacted with PNP-G for 5 min and the absorbance of 4-nitrophenol released upon the hydrolysis of PNP-G was read at 405 nm. Subsequently, the same amount of the substrate solution was added and reacted at room temperature for an additional five min., after which the reaction was stopped by adding 0.5 M Na2CO3. A change in absorbance at 405 nm was measured.
Inhibitory activity (%) against α-glucosidase was calculated according to the formula (1-absorbance of sample-added group/absorbance of solvent-added group)×100).
Acabose, which is an oral hypoglycemic agent inhibitory of α-glucosidase, was used as a positive control.

[1] = system: differentiated myoblast C2C12 cells; test: Glucose uptake of C2C12 cells, 2-NBDG flow cytometry (FACS); format: cell-based, mouse; details: treated with HdP for 24 hours, 2-NBDG fluorescence, dose-dependent
Procedure: The mouse-derived myoblast C2C12 cells (ATCC, Manassas, Va., USA) were suspended in DMEM (Dulbecco's Modified Eagle's Media) medium supplemented with 10% FBS and an antibiotic and cultured at 37° C. under a 5% CO2 atmosphere in an incubator. Upon 80% confluency, the C2C12 cells subjected to differentiation in a DMEM medium containing 2% horse serum and a low concentration of glucose for 5 days, with the medium freshly changed every three days. The differentiated cells were serum starved for 12 hours in serum free DMEM containing a low concentration of glucose, washed with PBS, and then reacted for 24 hours with the sample (HdP) in a fresh serum free DMEM.
Glucose uptake of mouse-derived myoblast C2C12 cells was measured using flow cytometry (FACS) according to the (2-(N-(7-nitrobenz-2oxa-1,3-diazol-4-yl)amino)-2-deoxyglucose (2-NBDG) assay method (Cell Death Dis. 2017 Oct. 5. 8 (10):e3078). The cultured cells were incubated with 10 μM 2-NBDG at 37° C. for 24 hours and then analyzed using BD FACS Cantoll (BD Biosciences, NJ, USA), with the fluorescence of 2-NBDG detected in a FITC channel.

zebrafish embryos [2] = test: HdP toxicity in zebrafish embryo; format: in vivo; details: 1 μg/ml or less HdP, exposed until 168 hours after fertilization
Procedure: Four days after fertilization, each of the embryos (n=15) was transferred to 12-well plates, each containing 950 μl of an embryo medium (distilled water containing 60 ppm salt) and 50 μl of HdP (0.01, 0.1, 1, and 10 μg/ml) and the viability of zebrafish embryos exposed to HdP for 168 hours after fertilization were measured.

[3] = system: alloxan-treated adult zebrafish; test: Blood glucose level in alloxan-treated adult zebrafish; format: in vivo
Procedure: Wild-type adult zebrafish were treated for 1 hour with 2 mg/ml alloxan and then for 1 hour with 1% glucose in the absence of insulin. Subsequently, the reaction solution was exchanged with water in which the zebrafish were then left for 1 hour before treatment with HdP, metformin, or BAPTA-AM for 90 min. Thus, the experiment groups included a non-treated group, an alloxan-treated group (control), a group treated with alloxan and HdP (0.3 μg/g body weight), a group treated with alloxan and metformin (5 μg/g body weight), a group treated with alloxan and BAPTA-AM (3 μg/g body weight), and a group treated with alloxan, BAPTA-AM (3 μg/g body weight), and HdP (0.3 μg/g body weight).

zebrafish embryos [4] = test: Intracellular calcium level in zebrafish embryo using Fluo-4; format: in vivo
Procedure: Intracellular calcium levels of zebrafish embryos were measured using a calcium-sensitive Fluo-4 probe. Embryos were incubated with Fluo-4 at 28.5±1° C. for 30 min before treatment with HdP (0.6, 3, and 6 μg/ml). In order to block the entry of calcium into cells, the embryos were reacted with the calcium chelator BAPTA-AM 0.1 mM for 1 hour before incubation with Fluo-4. The experiment groups included a non-treated group (N), a group treated with Fluo-4 alone (F), a group treated with HdP alone (0.6, 3, and 6 μg/ml), a group treated with Fluo-4 and HdP (0.6, 3, and 6 μg/ml), and a group treated with Fluo-4, BAPTA-AM, and HdP (6 μg/ml).

Compound	IC50 (yeast α-glucosidase)	glucose uptake into differentiated C2C12 cells [1]	survival rate of zebrafish embryos (zebrafish embryos [2])	blood glucose level ([3]; HdP 0.3 μg/g body weight, 90 min)	blood glucose level, HdP plus BAPTA-AM versus alloxan plus BAPTA-AM ([3]; HdP 0.3 μg/g with BAPTA-AM 3 μg/g body weight)	intracellular Ca2+ level (Fluo-4 phosphorescence) with calcium chelator BAPTA-AM (zebrafish embryos [4]; Fluo-4, BAPTA-AM 0.1 mM and HdP 6 μg/ml)	intracellular Ca2+ level (Fluo-4 phosphorescence) (zebrafish embryos [4]; HdP 0.6, 3 and 6 μg/ml with Fluo-4, versus group treated with Fluo-4 alone)	blood glucose level (effect compared with HdP) ([3]; metformin 5 μg/g body weight, 90 min)
Oc1cc(O)cc(Oc2cc(O)c(Oc3c(O)cc(O)cc3Oc3cc(O)c(Oc4cc(O)cc(O)c4Oc4cc(O)cc(O)c4Oc4cc(O)cc(O)c4Oc4cc(O)c(Oc5c(O)cc(O)cc5Oc5c(O)cc(Oc6c(O)cc(Oc7c(O)cc(Oc8c(O)cc(Oc9c(O)cc(Oc%10c(O)cc(Oc%11c(O)cc(O)cc%11O)cc%10O)cc9O)cc8O)cc7O)cc6O)cc5O)c(O)c4)c(O)c3)c(O)c2)c1 [HdP, hexadecaphlorethol]	55 µM	significantly increase	≥ 90%	significantly reduced	No significant differences	phosphorescence decrease	significant increase	–
CN(C)C(=N)N=C(N)N [metformin, reference compound]	–	–	–	–	–	–	–	similar
